The target in one test is human CYP11B1 (Homo sapiens (Human), UniProt P15538). Description: G-402 cellular enzyme assay, human CYP11B1 (cortisol release, HTRF). It counts as cell-based. The settings on record: G-402 cells expressing human CYP11B1; 1 μM Deoxycortisol. The text has this: (§1) Herein we identified the use of the G-402 cell line as a host cell to ectopically express (transiently or stably) enzymes of the CYP11 family. Specifically we developed stable G-402 cells expressing ectopically human CYP11B1, human CYP11B2, human CYP11A1, cynmolgus CYP11B1 or cynomolgus CYP11B2 enzyme activity. Importantly the identified cell line G-402 expresses co-factors (adrenodoxin and adrenodoxin reductase) important for the activity of the CYP11 family and no relevant enzyme activity of the CYP11 family (in comparison to H295R cells) was detected in these cells. Therefore the G-402 cell line is uniquely suited as a host cell for the ectopic expression of enzymes from the CYP11 family. G-402 cells can be obtained from ATCC (CRL-1440) and were originally derived from a renal leiomyoblastoma.
(§2) The expression plasmids contains the ORF for either human/cyno CYP11B1 or CYP11B2 under the control of a suitable promoter (CMV-promoter) and a suitable resistance marker (neomycin). Using standard techniques the expression plasmid is transfected into G-402 cells and these cells are then selected for expressing the given resistance markers. Individual cell-clones are then selected and assessed for displaying the desired enzymatic activity using 11-Deoxycorticosterone (Cyp11B2) or 11-Deoxycortisol (Cyp11B1) as a substrate.
(§3) G-402 cells expressing CYP11 constructs were established as described above and maintained in McCoy's 5a Medium Modified, ATCC Catalog No. 30-2007 containing 10% FCS and 400 μg/ml G418 (Geneticin) at 37° C. under an atmosphere of 5% CO2/95% air. Cellular enzyme assays were performed in DMEM/F12 medium containing 2.5% charcoal treated FCS and appropriate concentration of substrate (0.3-10 uM 11-Deoxycorticosterone, 11-Deoxycortisol or Corticosterone). For assaying enzymatic activity, cells were plated onto 96 well plates and incubated for 16 h. An aliquot of the supernatant is then transferred and analyzed for the concentration of the expected product (Aldosterone for CYP11B2; Cortisol for CYP11B1). The concentrations of these steroids can be determined using HTRF assays from CisBio analyzing either Aldosterone or Cortisol.
(§4) Inhibition of the release of produced steroids can be used as a measure of the respective enzyme inhibition by test compounds added during the cellular enzyme assay. The dose dependent inhibition of enzymatic activity by a compound is calculated by means of plotting added inhibitor concentrations (x-axes) vs. measured steroid/product level (y-axes). The inhibition is then calculated by fitting the following 4-parameter sigmoidal function (Morgan-Mercer-Flodin (MMF) model) to the raw data points using the least squares method:
(§5) [formula] wherein, A is the maximum y value, B is the EC50 factor determined using XLFit, C is the minimum y value and D is the slope value.
(§6) EC50 values for compounds claimed herein were tested with the G402-based assay system described. Cyp11B2 enzyme activity was tested in presence of 1 μM Deoxycorticosterone and variable amounts of inhibitors; Cyp11B1 enzyme activity was tested in presence of 1 μM Deoxycortisol and variable amounts of inhibitors.

Test [1] concerns the target T1, CYP11B2 (Homo sapiens (Human), UniProt P19099). In words: G-402 cellular enzyme assay, human CYP11B2 (aldosterone release, HTRF). It counts as cell-based. Conditions: G-402 cells expressing human CYP11B2; 1 μM Deoxycorticosterone.
Source text: as §1, §2, §3, §4, §5, §6

For test [2] the following is noted: rat CKD model, cited from earlier work; for plasma aldosterone: FAD286 4 weeks of treatment, spironolactone 4 and 8 weeks; for angiotensin II and salt-stimulated PAI-1 mRNA expression: aorta and heart.
Test [3] concerns the target T1, CYP11B2. Conditions: patients with primary aldosteronism; oral; cited from earlier work.

pEC50: −log10 of the molar value.

T1 sequence (P19099 25-503): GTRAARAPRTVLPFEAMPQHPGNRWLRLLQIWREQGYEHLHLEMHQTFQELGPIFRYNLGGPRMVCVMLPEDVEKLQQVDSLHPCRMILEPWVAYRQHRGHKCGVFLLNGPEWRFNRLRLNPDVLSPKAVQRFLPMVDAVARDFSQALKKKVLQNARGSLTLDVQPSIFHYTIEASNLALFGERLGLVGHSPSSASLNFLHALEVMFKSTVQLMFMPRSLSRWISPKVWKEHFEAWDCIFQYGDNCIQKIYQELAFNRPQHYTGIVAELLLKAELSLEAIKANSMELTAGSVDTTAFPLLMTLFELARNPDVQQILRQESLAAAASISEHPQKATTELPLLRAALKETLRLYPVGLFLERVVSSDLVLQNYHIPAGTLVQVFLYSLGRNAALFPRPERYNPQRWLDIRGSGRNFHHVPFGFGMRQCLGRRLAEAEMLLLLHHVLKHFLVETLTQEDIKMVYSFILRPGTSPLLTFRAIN
human CYP11B1, sequence (P15538 25-503): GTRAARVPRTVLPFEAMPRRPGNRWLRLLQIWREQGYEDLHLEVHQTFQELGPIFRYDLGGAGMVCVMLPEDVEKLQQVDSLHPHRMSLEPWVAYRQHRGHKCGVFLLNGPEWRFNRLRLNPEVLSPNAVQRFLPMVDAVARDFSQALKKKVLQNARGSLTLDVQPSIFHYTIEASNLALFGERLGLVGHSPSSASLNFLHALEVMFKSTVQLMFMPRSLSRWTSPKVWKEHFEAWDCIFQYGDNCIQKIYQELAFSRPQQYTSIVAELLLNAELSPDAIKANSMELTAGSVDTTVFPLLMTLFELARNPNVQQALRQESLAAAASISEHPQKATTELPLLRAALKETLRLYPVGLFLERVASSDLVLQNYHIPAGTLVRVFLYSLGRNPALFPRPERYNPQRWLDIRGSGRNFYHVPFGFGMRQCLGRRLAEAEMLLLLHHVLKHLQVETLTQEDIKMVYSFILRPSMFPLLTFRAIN

Regarding `O=C(CC1CCc2cncc(-c3ccc(C(F)(F)F)c(F)c3)c21)N1CCCCC1` (racemic) [Example 15, (rac)-2-[4-[3-Fluoro-4-(trifluoromethyl)phenyl]-6,7-dihydro-5H-cyclopenta[c]pyridin-5-yl]-1-(1-piperidyl)ethanone], the figures for the negative-log EC50 (pEC50) on human CYP11B1 and at CYP11B2 [1] were less than 4.52 and 6.08, respectively.
The matching figures for `O=C(CC1CCc2cncc(-c3ccc(C(F)(F)F)c(F)c3)c21)N1CCOCC1` (racemic) [Example 16, (rac)-2-[4-[3-Fluoro-4-(trifluoromethyl)phenyl]-6,7-dihydro-5H-cyclopenta[c]pyridin-5-yl]-1-morpholino-ethanone]: 5.44 and 5.99.
For the compound `O=C(CC1CCc2cncc(-c3ccc(C(F)(F)F)c(F)c3)c21)Nc1ccon1` (racemic) [Example 17, (rac)-2-[4-[3-Fluoro-4-(trifluoromethyl)phenyl]-6,7-dihydro-5H-cyclopenta[c]pyridin-5-yl]-N-isoxazol-3-yl-acetamide], the pEC50 at human CYP11B1 was 6.51; at CYP11B2 [1], 7.00.
As to `O=C(CC1CCc2cncc(-c3ccc(C(F)(F)F)c(F)c3)c21)Nc1cc[nH]n1` (racemic) [Example 18, (rac)-2-[4-[3-Fluoro-4-(trifluoromethyl)phenyl]-6,7-dihydro-5H-cyclopenta[c]pyridin-5-yl-]-N-(1H-pyrazol-3-yl)acetamide], the negative logarithm of the EC50 (pEC50) was 6.55 at human CYP11B1 and 6.22 at CYP11B2 [1].
For the compound `O=C(CC1CCc2cncc(-c3ccc(C(F)(F)F)cc3F)c21)N1CCCC1` (racemic) [Example 19, (rac)-2-[4-[2-Fluoro-4-(trifluoromethyl)phenyl]-6,7-dihydro-5H-cyclopenta[c]pyridin-5-yl]-1-pyrrolidin-1-yl-ethanone], the pEC50 at human CYP11B1 was 5.07; on CYP11B2 [1] it was 6.35.
The matching figures for `CCN(C)C(=O)CC1CCc2cncc(-c3ccc(C(F)(F)F)cc3F)c21` (racemic) [Example 20, (rac)-N-Ethyl-2-[4-[2-fluoro-4-(trifluoromethyl)phenyl]-6,7-dihydro-5H-cyclopenta[c]pyridin-5-yl-]-N-methyl-acetamide]: 5.22 and 6.67.
The matching figures for `CC(C)N(C)C(=O)CC1CCc2cncc(-c3ccc(C(F)(F)F)cc3F)c21` (racemic) [Example 21, (rac)-2-[4-[2-Fluoro-4-(trifluoromethyl)phenyl]-6,7-dihydro-5H-cyclopenta[c]pyridin-5-yl]-N-isopropyl-N-methyl-acetamide]: 5.08 and 6.38.
On to `CN(C(=O)CC1CCc2cncc(-c3ccc(C(F)(F)F)cc3F)c21)C1CC1` (racemic) [Example 22, (rac)-N-Cyclopropyl-2-[4-[2-fluoro-4-(trifluoromethyl)phenyl]-6,7-dihydro-5H-cyclopenta[c]pyridin-5-yl-]-N-methyl-acetamide], for which the results for the negative-log EC50 (pEC50) on human CYP11B1 and at CYP11B2 [1] were 5.02 and 6.02, respectively.
In the same order, the values of `CCN(C(=O)CC1CCc2cncc(-c3ccc(C(F)(F)F)cc3F)c21)C1CC1` (racemic) [Example 23, (rac)-N-Cyclopropyl-N-ethyl-2-[4-[2-fluoro-4-(trifluoromethyl)phenyl]-6,7-dihydro-5H-cyclopenta[c]pyridin-5-yl]acetamide] are 5.06 and 6.31.
`C[C@H]1CCCN1C(=O)CC1CCc2cncc(-c3ccc(C(F)(F)F)cc3F)c21` (mixture of isomers) [Example 24, (rac)-2-[4-[2-Fluoro-4-(trifluoromethyl)phenyl]-6,7-dihydro-5H-cyclopenta[c]pyridin-5-yl]-1-[(2S)-2-methylpyrrolidin-1-yl]ethanone]: the pEC50 at human CYP11B1 is 5.40; on CYP11B2 [1] it was 6.69.
In the case of `OC1(c2ccccc2)CCc2cncc(-c3ccc(C(F)(F)F)cc3F)c21` (single isomer, unassigned; (+)) [Example 9, (+)-4-[2-Fluoro-4-(trifluoromethyl)phenyl]-5-phenyl-6,7-dihydrocyclopenta[c]pyridin-5-ol], the values for the pEC50 at human CYP11B1 and on CYP11B2 [1] were 4.46 and 6.13, respectively.
The matching figures for `OC1(c2ccccc2)CCc2cncc(-c3ccc(C(F)(F)F)cc3F)c21` (single isomer, unassigned; (-)) [Example 10, (−)-4-[2-Fluoro-4-(trifluoromethyl)phenyl]-5-phenyl-6,7-dihydrocyclopenta[c]pyridin-5-ol]: 5.09 and 7.20.
Take `N#Cc1ccc([C@H]2CCCc3cncn32)cc1` [FAD286]: in test [2], the plasma aldosterone result was “reduced”; the “angiotensin II and salt-stimulated PAI-1 mRNA expression” value is recorded as “not FAD286 enhanced”.
In the case of `N#Cc1ccc([C@H]2CCc3cncn32)c(F)c1` [LCI699], on CYP11B2 [3], the blood pressure entry is listed as “mildly decreased”, the circulating aldosterone levels result is “significantly lower” and the hypokalemia entry is recorded as “corrected”.
Consider `CC(=O)S[C@@H]1CC2=CC(=O)CC[C@]2(C)[C@H]2CC[C@@]3(C)[C@@H](CC[C@@]34CCC(=O)O4)[C@H]12` [spironolactone], for which, in test [2], the plasma aldosterone entry is given as “increased”; the “angiotensin II and salt-stimulated PAI-1 mRNA expression” value is recorded as “enhanced”.

The values are drawn from US9636338B2, “Phenyl-dihydropyridine derivatives as inhibitors of aldosterone synthase” (Hoffmann-La Roche Inc., priority 2013, dated 2017).
